Laboratory results from patent US20190125753A1, “COMPOUNDS AND METHODS FOR INCREASING HEMATOPOIESIS” (University of Southern California, priority 2016, published 2019).

Experiments:
mouse bone marrow cells [1] = experiment: Colony-forming cell (CFC) assay after 4 h in vitro treatment; type: cell-based
Method: Brief (less than 24 hours) treatment of HSC with YH250 or DMSO was conducted before the CFC or CFU-S12 assay. Mouse bone marrow cells were treated with DMSO (solvent control) or YH250 for 4 hours in serum free HSC expansion medium before the cells were recovered for a colony forming assay. 7-8 Days after cell plating in methylcellulose medium (Stemcell Technologies, Methocult GF M3434, Cat#3434), colonies were scored, and the cells from each plate were recovered and counted.
In fact, they also show similar biological functions with respect to HSPC.

mouse bone marrow cells [2] = experiment: CFU-S12 assay (treated cells injected to lethally irradiated mice); type: in vivo; conditions: cells treated in vitro, 12 days after injection
From the text: In CFU-S12 assay, cells treated with DMSO or YH250 were recovered from plate and injected to lethally irradiated mice (FIG. 8A), 12 days later, animals were euthanized to check spleen colony formation and spleen weight.

cord blood CD34+ cells = experiment: Cord blood CD34+ cell culture 7 days, FACS surface marker analysis; type: cell-based, human; conditions: 7th day
Method: A method to analyze expanded cord blood CD34+ cell phenotype using FACS is established. In this study, cord blood cells were cultured in vitro with 4GF and different concentrations of p300/-catenin antagonist such as YH250. Because the limited CD34+ cells in culture system, GFP transgenic mouse bone marrow cells were isolated and added to the cells as carrier cells in FACS analysis. The bright GFP positive carrier cells were gated out and the targeting cord blood cells were further analyzed for their surface marker. FIG. 13A depicts carrier cell only in FACS analysis.
Cord blood CD34+ cells were cultured in medium containing either 4GF or 6GF with different concentration of p300/-catenin antagonist YH250. At 7th day in culture, cells were recovered and mixed with carrier cells from GFP mice bone marrow. Antibodies to human HSC surface protein are added to the cells and human CD45posit cells were gated for FACS analysis. […] In 6GF medium, 10 μM of YH250 also gives more human CD45+CD34+ cells compared with DMSO (73.3% vs 66.2%, Table 5).

[3] = system: LTR-HSC (LSKCD34−CD135−CD150+ cells); experiment: BrdU incorporation in bone marrow HSPC in vivo; parameters: species or system mouse; conditions: 24 or 48 hrs post administration
From the text: P300/-catenin antagonists stimulate HSPC proliferation both in vitro and in vivo. In this study, 24 or 48 hrs post either DMSO or YH250 administration, BrdU was given to animals and bone marrow cells were isolated and analyzed to determine HSPC proliferation (FIG. 15A). Bone marrow cells were stained with antibodies to lineage markers (CD3, CD4, CD8, B220, CD16, Gr-1, Mac-1), antibodies to Sca-1, c-kit, CD135, CD34, CD150 and BrdU.

[4] = system: H9 human embryonic stem cells; experiment: Maintenance of human ES cell pluripotency, 5 days; type: cell-based; conditions: 25 ng/ml Wnt3a; 500 nM YH249 or 200 nM YH250, 5 days, without FGF and TGF
Method: We also determined that IQ-1 indirectly, via binding to the PR72/130 subunit of PP2A, inhibited the p300/β-catenin interaction (Id). Therefore, we anticipated that YH249/250 should also maintain mESC pluripotency in a Wnt dependent manner. To test his, R1 mESCs were cultured under feeder free conditions in the presence or absence of YH249/250 for 5 days. […] Pluripotency markers, Oct4, Nanog, Sox2, SSEA-1 and ALP, were all expressed in the cells treated with Wnt3a and YH250 (FIG. 28b). Moreover, Wnt3a could be replaced with the selective GSK-3 inhibitor CHIR99021, which activates the Wnt signaling pathway (FIG. 28a, lower panel). […] In the event, similarly to ID-8, the combination of Wnt3a and YH249/250 provided morphologically undifferentiated colonies of H9 human embryonic stem cells (hESCs) without FGF and TGF (FIG. 28c). hPSC markers were detected by ALP staining and immunofluorescence (FIG. 28d). In addition to H9 cells, two other hESC lines and a human induced pluripotent stem (iPS) cell line could be also maintained undifferentiated morphology utilizing the same conditions (not shown).
Specifically, FIG. 28A-28D, show maintenance of ESC's pluripotency by YH249 and YH250. […] 28A, Typical colony morphologies of RI mouse ES cells cultured 5 days in [upper panel] […]

[5] = 4 hours incubation then CFC assay

COc1cccc(CNC(=O)N2C3CN(Cc4cc(Cl)cc(Cl)c4N(C)C)C(=O)[C@H](Cc4ccc(O)cc4)N3C(=O)CN2C)c1OC (some centres unmarked) [YH250]
CELL#/plate (mouse bone marrow cells [1]; [5]): 9.5 × 10^5
CFC#/plate (mouse bone marrow cells [1]; [5]): 29
CFC colony number vs DMSO (mouse bone marrow cells [1]; 4 hours treatment, serum free medium, scored 7-8 days after plating): not significantly different
cell number in each plate vs DMSO (mouse bone marrow cells [1]; 4 hours treatment, cells recovered from plate): increased cell number in each plate
spleen colonies (CFU-S12) (mouse bone marrow cells [2]): larger colonies on spleen
spleen weight (CFU-S12) (mouse bone marrow cells [2]): heavier spleen
%34 + 38-45RA-33- (cord blood CD34+ cells; 4GF (SF6T), 1 μM, DMSO 3.9): 3.5%
%33-45RA- (cord blood CD34+ cells; 4GF (SF6T), 1 μM, DMSO 4.5): 5.0%
% CD3+ (cord blood CD34+ cells; 4GF (SF6T), 1 μM, DMSO 12.2): 16.0%
%34 + 38- (cord blood CD34+ cells; 4GF (SF6T), 1 μM, DMSO 64.5): 51.7%
%34+ (cord blood CD34+ cells; 4GF (SF6T), 1 μM, DMSO 79.1): 64.1%
%33-45RA- (cord blood CD34+ cells; 4GF (SF6T), 3 μM): 5.8%
%34+ (cord blood CD34+ cells; 4GF (SF6T), 3 μM): 84%
%34 + 38- (cord blood CD34+ cells; 4GF (SF6T), 3 μM): 65.5%
%34 + 38-45RA-33- (cord blood CD34+ cells; 4GF (SF6T), 3 μM): 5.2%
% CD3+ (cord blood CD34+ cells; 4GF (SF6T), 3 μM): 9.5%
%33-45RA- (cord blood CD34+ cells; 4GF (SF6T), 10 μM): 4.9%
%34+ (cord blood CD34+ cells; 4GF (SF6T), 10 μM): 89.1%
%34 + 38- (cord blood CD34+ cells; 4GF (SF6T), 10 μM): 65.3%
%34 + 38-45RA-33- (cord blood CD34+ cells; 4GF (SF6T), 10 μM): 4.5%
% CD3+ (cord blood CD34+ cells; 4GF (SF6T), 10 μM): 4.5%
%34 + 38-45RA-33- (cord blood CD34+ cells; 6GF (SF6T3G), 1 μM, DMSO 2.3): 4.4%
%33-45RA- (cord blood CD34+ cells; 6GF (SF6T3G), 1 μM, DMSO 2.5): 5.8%
% CD3+ (cord blood CD34+ cells; 6GF (SF6T3G), 1 μM, DMSO 22.6): 20.1%
%34 + 38- (cord blood CD34+ cells; 6GF (SF6T3G), 1 μM, DMSO 56.4): 53.9%
%34+ (cord blood CD34+ cells; 6GF (SF6T3G), 1 μM, DMSO 66.2): 62%
%33-45RA- (cord blood CD34+ cells; 6GF (SF6T3G), 3 μM): 5.6%
%34+ (cord blood CD34+ cells; 6GF (SF6T3G), 3 μM): 66.1%
%34 + 38- (cord blood CD34+ cells; 6GF (SF6T3G), 3 μM): 55.8%
%34 + 38-45RA-33- (cord blood CD34+ cells; 6GF (SF6T3G), 3 μM): 4.2%
% CD3+ (cord blood CD34+ cells; 6GF (SF6T3G), 3 μM): 18.8%
%33-45RA- (cord blood CD34+ cells; 6GF (SF6T3G), 10 μM): 6.1%
%34+ (cord blood CD34+ cells; 6GF (SF6T3G), 10 μM): 73.3%
%34 + 38- (cord blood CD34+ cells; 6GF (SF6T3G), 10 μM): 57.9%
%34 + 38-45RA-33- (cord blood CD34+ cells; 6GF (SF6T3G), 10 μM): 4.2%
% CD3+ (cord blood CD34+ cells; 6GF (SF6T3G), 10 μM): 13.8%
BrdU positive cells in LTR-HSC [3]: more BrdU positive cells
hESC pluripotency [4]: maintain pluripotency
